{"source": "patent US20230279024A1", "about": "“TRIAZINE COMPOUND AND COMPOSITION AND USE THEREOF” (BEIJING FINDCURE BIOSCIENCES, LTD., priority 2020, published 2023)", "key": {"CYP2D6": {"target": "CYP2D6 (Homo sapiens (Human), UniProt P10635)", "sequence (P10635 whole entry)": "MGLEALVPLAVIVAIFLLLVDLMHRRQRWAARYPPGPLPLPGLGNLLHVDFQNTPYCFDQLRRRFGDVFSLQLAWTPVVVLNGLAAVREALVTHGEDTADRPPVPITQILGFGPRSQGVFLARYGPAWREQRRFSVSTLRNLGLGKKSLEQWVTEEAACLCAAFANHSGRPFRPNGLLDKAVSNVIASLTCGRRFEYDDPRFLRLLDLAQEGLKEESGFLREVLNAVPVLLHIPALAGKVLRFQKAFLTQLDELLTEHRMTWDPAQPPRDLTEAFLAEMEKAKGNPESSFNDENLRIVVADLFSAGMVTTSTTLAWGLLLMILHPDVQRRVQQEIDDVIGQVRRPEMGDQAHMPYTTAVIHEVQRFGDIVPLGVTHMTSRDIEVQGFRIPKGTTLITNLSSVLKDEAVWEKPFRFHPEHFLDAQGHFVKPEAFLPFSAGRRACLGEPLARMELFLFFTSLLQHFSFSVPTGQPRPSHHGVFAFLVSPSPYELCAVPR", "test": "Inhibition of human liver microsomes CYP450, 2D6", "assay_type": "in vitro ADME", "conditions": "compounds 10 μM (positive control: concentration not given)"}, "Ba/F3 AXL cells": {"tested_on": "Ba/F3 AXL cells", "test": "Cell activity test: growth inhibition of Ba/F3 AXL cell line (CTG, 72 h)", "assay_type": "cell-based", "conditions": "Mus musculus, BaF3", "protocol": "This experiment was conducted by detecting the inhibitory effect of compounds on the growth of Ba/F3 AXL cell line and Ba/F3 parental cell line. Cells in logarithmic growth stage were harvested and counted by platelet counter. Trypan blue rejection method was used to detect cell viability to ensure that the cell viability was above 90%. Adjust cell concentration; 90 μL cell suspension was added to 96-well plates, respectively; Cells in 96-well plates were cultured overnight at 37° C., 5% CO2 and 95% humidity. A 10-fold drug solution was prepared, with the highest concentration of 10 μM, and a total of 9 concentrations were diluted at 3.16 times the ratio. 10 μL drug solution was added to each well of the 96-well plate inoculated with cells, and three wells were set for each drug concentration; 96-well plates were incubated at 37° C., 5% CO2 and 95% humidity for 72 h, and CTG analysis was performed. Thaw the CTG reagent and balance the cell plates to room temperature for 30 minutes. Add the same volume of CTG solution to each well and vibrate on a fixed-rail shaker for 5 minutes to crack the cells. Place the cell plates at room temperature for 20 minutes to stabilize the cold light signal and read the cold light value. The GraphPad Prism 5.0 software was used to analyze the data, and the nonlinear S-curve regression was used to fit the data to obtain the dose-effect curve, and the IC50 value was calculated accordingly. Cell survival rate (%)=(Lum drug to be tested −Lum culture medium control)/(Lum cell control−Lum culture medium control)×100%."}, "AXL (h) kinase": {"target": "AXL (h) kinase (Homo sapiens (Human), UniProt P30530)", "sequence (P30530 473-894)": "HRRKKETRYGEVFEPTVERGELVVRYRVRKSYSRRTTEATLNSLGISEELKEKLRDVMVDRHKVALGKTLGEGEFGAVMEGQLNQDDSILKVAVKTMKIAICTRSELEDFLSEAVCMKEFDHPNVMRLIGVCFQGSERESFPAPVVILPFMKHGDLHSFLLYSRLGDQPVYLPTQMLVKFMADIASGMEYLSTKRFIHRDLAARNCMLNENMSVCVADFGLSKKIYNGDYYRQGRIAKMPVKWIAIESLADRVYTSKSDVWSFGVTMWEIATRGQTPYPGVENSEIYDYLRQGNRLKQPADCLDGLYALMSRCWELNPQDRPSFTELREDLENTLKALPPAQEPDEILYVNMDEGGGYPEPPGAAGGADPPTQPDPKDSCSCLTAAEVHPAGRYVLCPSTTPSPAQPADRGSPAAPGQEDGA", "test": "AXL (h) kinase activity test (EZ Reader mobility shift, FLPeptide30)", "assay_type": "biochemical", "conditions": "ATP 100 μM, AXL 1 nM", "protocol": "The effect of the disclosed compounds as protein kinase inhibitors can be evaluated by the following experiments. The AXL (h) kinase activity of the compounds of the invention is tested by the following methods:\nReagents used in the experiment were AXL (Carna Bioscience, Cat No.: 08-107) and FLPeptide30 (PerkinElmer, Cat No.: 760430). The instruments involved were thermotank (Thermo Scientific), oscillator (QILINBEIER), EZ Reader (PerkinElmer, Cat No.: 122919), Non-contact stage pipetting system (Labcyte Inc., Cat No.: Echo 550), and non-contact nanoliter pipetting system (TECAN, Cat No.: EVO200).\nCompound dilution: 1) Dissolve the compound in DMSO to the appropriate concentration; 2) Using TECAN EVO200 to dilute 10 concentrations in 384 microplates by three times gradient, the highest concentration is 1 mM; Echo550 was used to transfer 20 nL solution from the dilution plate to the test plate.\n2) Add 15 μL solution 1 to each well of the test plate and incubate at room temperature for 30 minutes.\n4) Add 5 μL solution 2 to start the reaction, and the final volume of each well is 20 μL.\n5) Incubated at 25° C. for 90 min, and then added 75 μL stop solution (containing 0.5 M EDTA) to terminate the reaction.\n6) The sample of each well was analyzed using EZ reader.\n1) Based on the measured conversion rate (CR), the Remaining Activity (%) of the kinase was calculated according to the following function:\n2) XLFit (Equation 201) software was used to fit IC50.\nThe above methods can be used to obtain the inhibitory IC50 and/or inhibitory constant Ki."}, "CYP3A4/5": {"tested_on": "CYP3A4/5", "test": "Inhibition of human liver microsomes CYP450, 3A4/5", "assay_type": "in vitro ADME", "conditions": "compounds 10 μM (positive control: concentration not given)"}, "CYP3A4 [1]": {"target": "T1, CYP3A4 (Homo sapiens (Human), UniProt P08684)", "conditions": "hepatocytes, 2 days, 10 μM", "protocol": "(§1) Cryopreservation of human primary hepatocytes was resuscitated in medium after take out from liquid nitrogen. […] Plates were incubated at 37° C. and 5% CO2 for 4-6 hours to confirm the formation of monolayer cells attached to the wall. Then the adherent culture medium was changed into hepatocyte culture medium and the culture was continued overnight.\nAfter the test compound and positive control inducer were co-incubated with cells, the medium was removed and mercaptoethanol was added for cell lysis. Total RNA in cells was extracted with RNA extraction kit, and then transcribed into cDNA with cDNA reverse transcription kit. The 10 μL cDNA template was taken and analyzed on the fluorescence quantitative PCR instrument to obtain the Ct value.\nThe gene expression data were corrected by internal reference 18S, and the relative expression differences were determined by the method of ΔΔCt commonly used in fluorescence quantitative PCR.\nThe ΔCt, ΔΔCt and relative expression difference values of the target genes were calculated according to the following formula:\nΔCt=Ct value of target gene−Ct value of internal reference 18S\nΔΔCt=ΔCt of experimental group or positive control group−ΔCt of blank control group\nRelative expression difference (fold of induction)=2−ΔΔ^Ct"}, "CYP3A4 [2]": {"target": "T1, CYP3A4", "conditions": "hepatocytes, 2 days, 10 μM", "protocol": "as §1\nAfter the test compounds and positive control inducers were co-incubated with cells, the incubation medium was removed. […] After the samples were extracted and processed, the generation of metabolites and the kinase activities of CYP1A2, 2B6 and 3A4 was quantitatively detected by LC-MS/MS, respectively.\nThe induction of test substance on each subenzyme was determined by detecting the generation rate of metabolites of CYP450 subenzyme substrates. The relative activity of each subenzyme was expressed as a percentage of the relative blank control, and the data were calculated according to the following formula:\nFold of induction=sample subenzyme activity/blank subenzyme activity\nRelative positive control activity (PC %)=(Fold of induction of sample group—Fold of induction of blank group)/(Fold of induction of positive control group—Fold of induction of blank group)×100", "remark": "listed apart in the source"}, "CYP1A2": {"target": "CYP1A2 (Homo sapiens (Human), UniProt P05177)", "sequence (P05177 whole entry)": "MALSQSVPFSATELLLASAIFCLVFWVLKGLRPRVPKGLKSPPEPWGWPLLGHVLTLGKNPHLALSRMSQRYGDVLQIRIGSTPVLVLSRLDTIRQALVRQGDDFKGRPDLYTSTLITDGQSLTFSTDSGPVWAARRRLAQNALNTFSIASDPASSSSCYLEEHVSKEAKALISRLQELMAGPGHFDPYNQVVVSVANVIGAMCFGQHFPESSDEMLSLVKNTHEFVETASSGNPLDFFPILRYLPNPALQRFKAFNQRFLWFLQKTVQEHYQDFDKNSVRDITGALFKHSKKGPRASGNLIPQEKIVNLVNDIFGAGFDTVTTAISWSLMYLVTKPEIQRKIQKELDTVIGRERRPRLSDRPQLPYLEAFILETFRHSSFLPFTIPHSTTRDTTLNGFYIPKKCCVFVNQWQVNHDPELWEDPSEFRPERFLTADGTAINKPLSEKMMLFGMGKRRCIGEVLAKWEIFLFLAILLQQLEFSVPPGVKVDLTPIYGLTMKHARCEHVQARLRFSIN", "conditions": "microsomes, 10 µM"}}, "data": [{"smiles": "CC(C)C(=O)N1CCC(c2cc(-c3ccc(NC(=O)c4c5n(n(-c6ccccc6)c4=O)CCOC5)cc3F)c3c(N)ncnn23)CC1", "note": "[example 8, N-(4-(4-amino-7-(1-isobutyrylpiperidin-4-yl)pyrrolo[2,1-f][1,2,4]triazin-5-yl)-3-fluorophenyl)-2-oxo-1-phenyl-2,4,6,7-tetrahydro-1H-pyrazolo[5,1-c][1,4]oxazine-3-carboxamide]", "values": [{"measurement": "Inhibitory rate (%) 2D6", "setting": "CYP2D6", "result": "No inhibition"}, {"measurement": "IC50", "setting": "Ba/F3 AXL cells", "result": "< 5", "unit": "nM"}, {"measurement": "IC50", "setting": "AXL (h) kinase", "result": "5 to 50", "unit": "nM"}]}, {"smiles": "CC(C)C(=O)N1CCC(c2cc(-c3ccc(NC(=O)c4c5n(n(-c6ccccc6)c4=O)CCCC5)nc3)c3c(N)ncnn23)CC1", "note": "[example 11, N-(5-(4-amino-7-(1-isobutyrylpiperidin-4-yl)pyrrolo[2,1-f][1,2,4]triazin-5-yl)pyridin-2-yl)-2-oxo-1-phenyl-1,2,4,5,6,7-hexahydropyrazolo[1,5-a]pyridine-3-carboxamide]", "values": [{"measurement": "Inhibitory rate (%) 2D6", "setting": "CYP2D6", "result": "No inhibition"}, {"measurement": "IC50", "setting": "Ba/F3 AXL cells", "result": "< 5", "unit": "nM"}, {"measurement": "Inhibitory rate (%) 3A4/5", "setting": "CYP3A4/5", "result": "No inhibition"}]}, {"smiles": "CC(C)C(=O)N1CCC(c2cc(-c3ccc(NC(=O)c4c5n(n(-c6ccccc6)c4=O)CCCC5)cc3F)c3c(N)ncnn23)CC1", "note": "[example 16, N-(4-(4-amino-7-(1-isobutyrylpiperidin-4-yl)pyrrolo[2,1-f][1,2,4]triazin-5-yl)-3-fluorophenyl)-2-oxo-1-phenyl-1,2,4,5,6,7-hexahydropyrazolo[1,5-a]pyridine-3-carboxamide]", "values": [{"measurement": "IC50", "setting": "Ba/F3 AXL cells", "result": "< 5", "unit": "nM"}, {"measurement": "Gene expression CYP3A4 Fold of induction", "setting": "CYP3A4 [1]", "result": 276}, {"measurement": "IC50", "setting": "AXL (h) kinase", "result": "5 to 50", "unit": "nM"}, {"measurement": "Inhibitory rate (%) 3A4/5", "setting": "CYP3A4/5", "result": "No inhibition"}, {"measurement": "Enzymatic activity CYP3A4 Fold of induction", "setting": "CYP3A4 [2]", "result": 1.26}]}, {"smiles": "Nc1ncnn2c(C3CCC(O)CC3)cc(-c3ccc(NC(=O)c4c5n(n(-c6ccccc6)c4=O)CCCC5)nc3)c12", "note": "(stereo not drawn) [example 21, N-(5-(4-amino-7-(4-hydroxycyclohexyl)pyrrolo[2,1-f][1,2,4]triazin-5-yl)pyridin-2-yl)-2-oxo-1-phenyl-1,2,4,5,6,7-hexahydropyrazolo[1,5-a]pyridine-3-carboxamide]", "values": [{"measurement": "Inhibitory rate (%) 2D6", "setting": "CYP2D6", "result": "No inhibition"}, {"measurement": "IC50", "setting": "Ba/F3 AXL cells", "result": "< 5", "unit": "nM"}, {"measurement": "Inhibitory rate (%) 1A2", "setting": "CYP1A2", "result": "No inhibition"}, {"measurement": "Inhibitory rate (%) 3A4/5", "setting": "CYP3A4/5", "result": "No inhibition"}]}, {"smiles": "Nc1ncnn2c1c(-c1ccc(NC(=O)c3c4n(n(-c5ccccc5)c3=O)CCOC4)cc1F)cc2[C@H]1CC[C@H](O)CC1", "note": "[example 22, N-(4-(4-amino-7-((1r,4r)-4-hydroxycyclohexyl)pyrrolo[2,1-f][1,2,4]triazin-5-yl)-3-fluorophenyl)-2-oxo-1-phenyl-2,4,6,7-tetrahydro-1H-pyrazolo[5,1-c][1,4]oxazine-3-carboxamide]", "values": [{"measurement": "IC50", "setting": "Ba/F3 AXL cells", "result": "< 5", "unit": "nM"}, {"measurement": "Gene expression CYP3A4 Fold of induction", "setting": "CYP3A4 [1]", "result": 1.31}, {"measurement": "IC50", "setting": "AXL (h) kinase", "result": "5 to 50", "unit": "nM"}, {"measurement": "Inhibitory rate (%) 3A4/5", "setting": "CYP3A4/5", "result": "No inhibition"}, {"measurement": "Enzymatic activity CYP3A4 Fold of induction", "setting": "CYP3A4 [2]", "result": 1.02}]}, {"smiles": "Nc1ncnn2c1c(-c1ccc(NC(=O)c3c4n(n(-c5ccccn5)c3=O)CCCC4)cc1F)cc2[C@H]1CC[C@H](O)CC1", "note": "[example 30, N-(4-(4-amino-7-((1r,4r)-4-hydroxycyclohexyl)pyrrolo[2,1-f][1,2,4]triazin-5-yl)-3-fluorophenyl)-2-oxo-1-(pyridin-2-yl)-1,2,4,5,6,7-hexahydropyrazolo[1,5-a]pyridine-3-carboxamide]", "values": [{"measurement": "IC50", "setting": "Ba/F3 AXL cells", "result": "< 5", "unit": "nM"}, {"measurement": "Gene expression CYP3A4 Fold of induction", "setting": "CYP3A4 [1]", "result": 1.58}, {"measurement": "IC50", "setting": "AXL (h) kinase", "result": "< 5", "unit": "nM"}, {"measurement": "Inhibitory rate (%) 3A4/5", "setting": "CYP3A4/5", "result": "No inhibition"}, {"measurement": "Enzymatic activity CYP3A4 Fold of induction", "setting": "CYP3A4 [2]", "result": 0.836}]}, {"smiles": "Nc1ncnn2c1c(-c1ccc(NC(=O)c3c4n(n(-c5ccccn5)c3=O)CCOC4)cc1F)cc2[C@H]1CC[C@H](O)CC1", "note": "[example 31, N-(4-(4-amino-7-((1r,4r)-4-hydroxycyclohexyl)pyrrolo[2,1-f][1,2,4]triazin-5-yl)-3-fluorophenyl)-2-oxo-1-(pyridin-2-yl)-2,4,6,7-tetrahydro-1H-pyrazolo[5,1-c][1,4]oxazine-3-carboxamide]", "values": [{"measurement": "IC50", "setting": "Ba/F3 AXL cells", "result": "< 5", "unit": "nM"}, {"measurement": "Gene expression CYP3A4 Fold of induction", "setting": "CYP3A4 [1]", "result": 0.944}, {"measurement": "IC50", "setting": "AXL (h) kinase", "result": "5 to 50", "unit": "nM"}, {"measurement": "Inhibitory rate (%) 3A4/5", "setting": "CYP3A4/5", "result": "No inhibition"}, {"measurement": "Enzymatic activity CYP3A4 Fold of induction", "setting": "CYP3A4 [2]", "result": 0.913}]}]}
